Values after ≈ are worked out from the molar mass of the structure shown.

For assay [1], the system named is Nannizzia gypsea. As to the kind of experiment: Antifungal activity against Microsporum gypseum after 5 days. Format: functional. As to conditions: 120 h.
The subject of assay [2] is Candida albicans. As to the kind of experiment: Antifungal activity against Candida albicans ATCC 10231 after 48 hrs by CLSI-based broth microdilution method. It is filed as functional. As to conditions: ATCC 10231, 48 h.
In assay [3] the test system is Saccharomyces cerevisiae. Kind of assay: Antifungal activity against Saccharomyces cerevisiae ATCC 9763 after 48 hrs by CLSI-based broth microdilution method. The conditions noted are these: ATCC 9763, 48 h. Format: functional. (In general: In broth dilution the organism is exposed to a series of concentrations in liquid medium.)
In assay [4] the test system is Trichophyton tonsurans. As to the kind of experiment: Antifungal activity against Trichophyton tonsurans after 5 days. Format: functional. The conditions noted are these: 120 h.
Assay [5] has as its system Candida tropicalis. Kind of assay: Antifungal activity against Candida tropicalis CCC 131-2000 after 48 hrs by CLSI-based broth microdilution method. Format: functional. As to conditions: CCC 131-2000, 48 h.
Assay [6] concerns Cryptococcus neoformans. Kind of assay: Antifungal activity against Cryptococcus neoformans ATCC 32264 after 48 hrs by CLSI-based broth microdilution method. It is filed as functional. The conditions noted are these: ATCC 32264, 48 h.
For assay [7], the system named is Trichophyton rubrum. Kind of assay: Antifungal activity against Trichophyton rubrum after 5 days. It is filed as functional. As to conditions: 120 h.
Assay [8] has as its system Trichophyton mentagrophytes. As to the kind of experiment: Antifungal activity against Trichophyton mentagrophytes after 5 days. It is filed as functional. As to conditions: 120 h.
The test system of assay [9] is Nakaseomyces glabratus. As to the kind of experiment: Antifungal activity against Candida glabrata ATCC 90030. Format: functional.
The test system of assay [10] is Cryptococcus gattii. As to the kind of experiment: Antifungal activity against Cryptococcus gattii after 72 hrs. It is filed as functional, Cryptococcus gattii VGI.
In assay [11] the test system is Cryptococcus neoformans. As to the kind of experiment: Antifungal activity against Cryptococcus neoformans after 72 hrs. Format: functional.
Assay [12] relates to Cryptococcus neoformans. Kind of assay: Antifungal activity against Cryptococcus neoformans after 48 hrs by broth micro dilution method. Format: functional.
For assay [13], the system named is Candida parapsilosis. Kind of assay: Antifungal activity against Candida parapsilosis after 48 hrs by broth micro dilution method. As to conditions: Lodderomyces parapsilosis. It is filed as functional.
The test system of assay [14] is Candida albicans. Kind of assay: Antifungal activity against Candida albicans after 48 hrs by broth micro dilution method. It is filed as functional.
Assay [15] concerns Candida albicans. Kind of assay: Antifungal activity against Candida albicans ATCC 90028 after 18 hrs by two-fold microdilution method. The conditions noted are these: ATCC 90028, 18 h. Format: functional.
Assay [16] has as its system Nakaseomyces glabratus. Kind of assay: Antifungal activity against Candida glabrata ATCC 90030 after 18 hrs by two-fold microdilution method. It is filed as functional. The conditions noted are these: ATCC 90030, 18 h.
Assay [17] deals with Candida parapsilosis. As to the kind of experiment: Antifungal activity against Candida parapsilosis ATCC 22019 after 18 hrs by two-fold microdilution method. Format: functional. The conditions noted are these: Lodderomyces parapsilosis, ATCC 22019, 18 h.
The subject of assay [18] is Candida albicans. Kind of assay: Antifungal activity against Candida albicans. It is filed as functional, organism-based.
Assay [19] has as its system Trichophyton. Kind of assay: Antifungal activity against Trichophyton. It is filed as functional.
For assay [20], the system named is Aspergillus fumigatus. As to the kind of experiment: Fungicidal activity against Aspergillus fumigatus ATTC 26934 after 48 hrs. The conditions noted are these: ATTC 26934, 48 h. Format: functional.
Assay [21] relates to Nannizzia gypsea. Kind of assay: Fungicidal activity against Microsporum gypseum CCC 115 after 48 hrs. The conditions noted are these: CCC 115, 48 h. It is filed as functional.
Assay [22] deals with Trichophyton mentagrophytes. Kind of assay: Fungicidal activity against Trichophyton mentagrophytes ATCC 9972 after 48 hrs. It is filed as functional. As to conditions: ATCC 9972, 48 h.
Assay [23] relates to Trichophyton rubrum. As to the kind of experiment: Fungicidal activity against Trichophyton rubrum CCC 110 after 48 hrs. It is filed as functional. The conditions noted are these: CCC 110, 48 h.
Assay [24] relates to Saccharomyces cerevisiae. As to the kind of experiment: Fungicidal activity against Saccharomyces cerevisiae ATCC 9763 after 48 hrs. Format: functional. As to conditions: ATCC 9763, 48 h.
Assay [25] concerns Cryptococcus neoformans. As to the kind of experiment: Fungicidal activity against Cryptococcus neoformans ATCC 32264 after 48 hrs. The conditions noted are these: ATCC 32264, 48 h. Format: functional.
Assay [26] has as its system Aspergillus niger. Kind of assay: Fungicidal activity against Aspergillus niger ATCC 9029 after 48 hrs. Format: functional. As to conditions: ATCC 9029, 48 h.
The test system of assay [27] is Aspergillus flavus. Kind of assay: Fungicidal activity against Aspergillus flavus ATCC 9170 after 48 hrs. It is filed as functional. The conditions noted are these: ATCC 9170, 48 h.
Assay [28] concerns Candida albicans. As to the kind of experiment: Fungicidal activity against Candida albicans ATCC 10231 after 48 hrs. Format: functional. The conditions noted are these: ATCC 10231, 48 h.
The subject of assay [29] is Cryptococcus neoformans. As to the kind of experiment: Fungicidal activity against Cryptococcus neoformans clinical isolate after 48 hrs. Format: functional.
The test system of assay [30] is Cryptococcus neoformans. As to the kind of experiment: Antifungal activity against Cryptococcus neoformans ATCC 90112 after 48 hrs by CLSI-based method. Format: functional. As to conditions: ATCC 90112, 48 h.
Assay [31] deals with Candida parapsilosis. Kind of assay: Antifungal activity against Candida parapsilosis. Format: functional. The conditions noted are these: Lodderomyces parapsilosis.

For `O=c1c(O[C@@H]2O[C@H](CO)[C@@H](O)[C@H](O)[C@H]2O)c(-c2cc(O)c(O)c(O)c2)oc2cc(O)cc(O)c12`, the minimum inhibitory concentration (MIC) (in general, the least concentration at which growth counts as inhibited) in assay [1] was 4 to 128 µg/mL (≈ 8.33 to 266 µM); in assay [2], 31.2 µg/mL (≈ 64.9 µM); in assay [3], 31.2 µg/mL (≈ 64.9 µM); in assay [4] it was 4 to 128 µg/mL (≈ 8.33 to 266 µM); in [5] it was 31.2 µg/mL (≈ 64.9 µM); in assay [6], 31.2 µg/mL (≈ 64.9 µM). For the same compound, the MIC in assay [7] is 4 to 128 µg/mL (≈ 8.33 to 266 µM); in [8], 4 to 128 µg/mL (≈ 8.33 to 266 µM); in assay [9], 8.53 µg/mL (≈ 17.8 µM); in assay [10] it was 128 µg/mL (≈ 266 µM); in [11] it was 8 to 128 µg/mL (≈ 16.7 to 266 µM).
On to `O=C(O)[C@H]1O[C@@H](Oc2cc(O)c3c(=O)cc(-c4ccc(O)cc4)oc3c2)[C@H](O)[C@@H](O)[C@@H]1O`, for which the MIC in assay [12] was 128 µg/mL (≈ 287 µM); in assay [13] it was 64 µg/mL (≈ 143 µM); in assay [14], more than 256 µg/mL.
For the compound `CC(C)=CCc1c(O)cc(O)c2c(=O)cc(-c3ccc(O)cc3)oc12`, the minimal inhibitory concentration (MIC) in assay [15], in assay [16] and in [17] was 15.6 µg/mL (≈ 46.2 µM) throughout.
As to `COc1cc(O)cc2oc(-c3cc(O)c(O)c(O)c3)c(O)c(=O)c12`, the MIC in [1] was 4 to 128 µg/mL (≈ 12 to 385 µM); in assay [2], 31.2 µg/mL (≈ 93.9 µM); in [3], 31.2 µg/mL (≈ 93.9 µM); in assay [4], 4 to 128 µg/mL (≈ 12 to 385 µM); in assay [5] it was 31.2 µg/mL (≈ 93.9 µM); in assay [6], 31.2 µg/mL (≈ 93.9 µM). Further, the MIC in assay [7] is 4 to 128 µg/mL (≈ 12 to 385 µM); in assay [8], 4 to 128 µg/mL (≈ 12 to 385 µM); in [9] it was 6.79 to 15.4 µg/mL (≈ 20.4 to 46.3 µM); in assay [10] it was 128 µg/mL (≈ 385 µM); in assay [11], 8 to 128 µg/mL (≈ 24.1 to 385 µM).
In the case of `Cc1c(O)c2c(c3c1OC(C)(C)C=C3)O[C@H](c1ccc(O)c(O)c1)CC2=O`, the values for the MIC in [18] and in assay [19] were 1.96 µg/mL (≈ 5.32 µM) and 1.95 µg/mL (≈ 5.29 µM), respectively.
As for `Cc1ccc(C(=O)/C=C/c2ccc(O)c(OCCCN(C)C)c2)cc1`, the MFC in assay [20], in [21], in assay [22], in [23], in [24] and in [25] was 62.5 µg/mL (≈ 184 µM) in each case. Also, the minimum fungicidal concentration (MFC) in assay [26], in assay [27], in assay [28] and in assay [29] was 62.5 µg/mL (≈ 184 µM) each time.
In the case of `CN(C)CCCOc1cc(/C=C/C(=O)c2ccc(Cl)cc2)ccc1O`, the MFC in [20], in [21], in assay [22], in assay [23], in assay [24] and in [25] was 31.2 µg/mL (≈ 86.8 µM) in each case. Moreover, the MFC in assay [26], in assay [27], in [28] and in assay [29] was 31.2 µg/mL (≈ 86.8 µM) each time.
Consider `C[C@@H]1[C@H](O)[C@@H](C)/C=C/C=C/C=C/C=C/C=C/C=C/C=C/[C@H](O[C@@H]2O[C@H](C)[C@@H](O)[C@H](N)[C@@H]2O)C[C@@H]2O[C@](O)(C[C@@H](O)C[C@@H](O)[C@H](O)CC[C@@H](O)C[C@@H](O)CC(=O)O[C@H]1C)C[C@H](O)[C@H]2C(=O)O` [AMPHOTERICIN B], for which the lowest concentration to inhibit growth in [30] (MIC) was 0.03 µg/mL (≈ 0.0325 µM).
In the case of `O=c1c(O[C@@H]2O[C@@H](CO)[C@H](O)[C@H]2O)c(-c2ccc(O)c(O)c2)oc2cc(O)cc(O)c12` [AVICULARIN], the MIC was in the range of 2 to 16 µg/mL (≈ 4.6 to 36.8 µM) in assay [20], 8 to 32 µg/mL (≈ 18.4 to 73.7 µM) in assay [31] and 2 to 32 µg/mL (≈ 4.6 to 73.7 µM) in assay [18].

Source of the values: ChEMBL document CHEMBL4311957, “Recent advances in natural antifungal flavonoids and their derivatives” (Bioorg Med Chem Lett, 2019).
